In US9434711B2 (Janssen Pharmaceutica, NV, priority 2007, dated 2016):

Target: canine TRPM8 (Canis lupus familiaris, UniProt Q1A7N1)
Experiment: In Vitro Canine TRPM8 Functional Assay (Ca2+ fluorescence, icilin activation)
Type: cell-based
Conditions: for IC50: HEK293 cells stably expressing canine TRPM8, icilin activation, eight-point dose-response, read-out: IC50; for inhibition at 0.2 µM: compound at 0.2 μM, canine TRPM8, icilin activation, read-out: % Inh @ 0.2
Procedure, shortened: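 Eight-point dose-response curves in quadruplicate gave EC50 or IC50 values from a Ca2+-sensitive dye assay in HEK293 cells stably carrying canine TRPM8. Icilin, dosed near its 80% maximal level, followed a 5 min compound exposure.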

Chain of canine TRPM8 (Q1A7N1 1-1104): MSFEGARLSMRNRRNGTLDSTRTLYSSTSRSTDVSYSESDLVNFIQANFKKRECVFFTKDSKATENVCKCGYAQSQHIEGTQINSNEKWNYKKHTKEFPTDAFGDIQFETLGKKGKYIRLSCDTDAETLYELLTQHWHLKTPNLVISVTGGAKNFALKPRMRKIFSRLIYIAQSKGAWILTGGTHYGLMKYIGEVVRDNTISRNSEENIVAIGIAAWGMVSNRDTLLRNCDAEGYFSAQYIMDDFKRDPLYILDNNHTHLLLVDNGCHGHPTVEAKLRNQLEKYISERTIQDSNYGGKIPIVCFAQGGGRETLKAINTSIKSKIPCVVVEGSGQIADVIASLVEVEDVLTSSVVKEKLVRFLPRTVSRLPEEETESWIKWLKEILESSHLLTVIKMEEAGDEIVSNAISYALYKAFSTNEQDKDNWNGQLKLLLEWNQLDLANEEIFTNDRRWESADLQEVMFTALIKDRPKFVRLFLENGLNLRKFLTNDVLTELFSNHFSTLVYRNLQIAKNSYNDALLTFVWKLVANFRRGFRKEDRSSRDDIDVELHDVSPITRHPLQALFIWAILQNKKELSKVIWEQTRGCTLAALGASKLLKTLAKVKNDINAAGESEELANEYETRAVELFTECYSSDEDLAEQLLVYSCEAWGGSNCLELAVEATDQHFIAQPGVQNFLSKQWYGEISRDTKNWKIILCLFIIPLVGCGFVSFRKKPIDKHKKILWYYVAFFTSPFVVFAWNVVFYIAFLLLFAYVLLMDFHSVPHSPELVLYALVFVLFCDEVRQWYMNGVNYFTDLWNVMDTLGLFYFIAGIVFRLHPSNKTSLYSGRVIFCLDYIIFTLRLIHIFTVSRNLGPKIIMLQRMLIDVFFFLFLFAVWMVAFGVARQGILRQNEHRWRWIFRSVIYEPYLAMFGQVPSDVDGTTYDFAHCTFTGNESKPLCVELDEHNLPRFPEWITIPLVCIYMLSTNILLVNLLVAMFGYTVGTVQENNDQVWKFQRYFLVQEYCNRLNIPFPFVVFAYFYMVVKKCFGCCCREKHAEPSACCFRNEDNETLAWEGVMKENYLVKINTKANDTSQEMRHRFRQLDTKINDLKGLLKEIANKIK

Work on CS(=O)(=O)Nc1ccc(S(=O)(=O)N(CCCCC(F)(F)F)c2sc3ccccc3c2Br)cc1 [Compound 680, N-(3-Bromo-benzo[b]thiophen-2-yl)-4-methanesulfonylamino-N-(5,5,5-trifluoro-pentyl)-benzenesulfonamide] yielded an IC50 of 56.1 nM and an inhibition at 0.2 µM of 96.2%.
In the case of CS(=O)(=O)Nc1c(Cl)cc(S(=O)(=O)N(CCC(F)(F)F)c2sc3ccccc3c2Cl)cc1Cl [Compound 681, 3,5-Dichloro-N-(3-chloro-benzo[b]thiophen-2-yl)-4-methanesulfonylamino-N-(3,3,3-trifluoro-propyl)-benzenesulfonamide], the IC50 is reported as 67.4 nM and the inhibition at 0.2 µM is reported as 93.3%.
With CS(=O)(=O)Nc1c(Cl)cc(S(=O)(=O)N(CCCCC(F)(F)F)c2sc3ccccc3c2Cl)cc1Cl [Compound 682, 3,5-Dichloro-N-(3-chloro-benzo[b]thiophen-2-yl)-4-methanesulfonylamino-N-(5,5,5-trifluoro-pentyl)-benzenesulfonamide] the IC50 was 31.7 nM and the inhibition at 0.2 µM was 101%.
CS(=O)(=O)Nc1ccc(S(=O)(=O)N(CCC(F)(F)F)c2sc3ccccc3c2Br)cc1Br [Compound 683, 3-Bromo-N-(3-bromo-benzo[b]thiophen-2-yl)-4-methanesulfonylamino-N-(3,3,3-trifluoro-propyl)-benzenesulfonamide] gave an IC50 of 25.8 nM and an inhibition at 0.2 µM of 101%.
O=c1[nH]c(-c2ccc(S(=O)(=O)N(CCC(F)(F)F)c3cc4ccccc4s3)cc2)ns1 [Compound 684, N-(Benzo[b]thiophen-2-yl)-N-(3,3,3-trifluoro-propyl)-4-(5-oxo-4,5-dihydro-[1,2,4]thiadiazol-3-yl)-benzenesulfonamide] was tested, and the IC50 was 145 nM and the inhibition at 0.2 µM was 73.1%.
Work on O=C(O)c1ccc(S(=O)(=O)N(CCCCC(F)(F)F)c2cc3ccccc3s2)c(F)c1 [Compound 685, N-(Benzo[b]thiophen-2-yl)-N-(5,5,5-trifluoro-pentyl)-2-fluoro-4-carboxy-benzenesulfonamide] yielded an IC50 of 11.9 nM and an inhibition at 0.2 µM of 102%.
In the case of O=C(O)c1ccc(S(=O)(=O)N(Cc2ccc(F)c(C(F)(F)F)c2)c2cc3ccccc3s2)c(F)c1 [Compound 686, N-(Benzo[b]thiophen-2-yl)-N-(4-fluoro-3-trifluoromethyl-benzyl)-2-fluoro-4-carboxy-benzenesulfonamide], the IC50 is reported as 4.7 nM and the inhibition at 0.2 µM is reported as 105%.
In the case of O=c1[nH]c(-c2ccc(S(=O)(=O)N(CCCCC(F)(F)F)c3cc4ccccc4s3)cc2)ns1 [Compound 687, N-(Benzo[b]thiophen-2-yl)-N-(5,5,5-trifluoro-pentyl)-4-(5-oxo-4,5-dihydro-[1,2,4]thiadiazol-3-yl)-benzenesulfonamide], the IC50 is reported as 56.9 nM and the inhibition at 0.2 µM is reported as 74.5%.
For CNc1ccc(S(=O)(=O)N(CCC2CC2)c2cc3ccccc3s2)cc1 [Compound 688, N-(Benzo[b]thiophen-2-yl)-N-(2-cyclopropyl-ethyl)-4-methylamino-benzenesulfonamide], the IC50 was 60.2 nM and the inhibition at 0.2 µM was 99%.
CN(C)c1ccc(S(=O)(=O)N(CCC2CC2)c2cc3ccccc3s2)cc1 [Compound 689, N-(Benzo[b]thiophen-2-yl)-N-(2-cyclopropyl-ethyl)-4-dimethylamino-benzenesulfonamide] gave an IC50 of 52.8 nM and an inhibition at 0.2 µM of 86%.
CNc1ccc(S(=O)(=O)N(CCC2CC2)c2sc3ccccc3c2Cl)cc1 [Compound 690, N-(3-Chloro-benzo[b]thiophen-2-yl)-N-(2-cyclopropyl-ethyl)-4-methylamino-benzenesulfonamide] showed an IC50 of 16.1 nM and an inhibition at 0.2 µM of 101%.
CNc1ccc(S(=O)(=O)N(CCC2CC2)c2sc3ccccc3c2Cl)cc1Cl [Compound 691, 3-Chloro-N-(3-chloro-benzo[b]thiophen-2-yl)-N-(2-cyclopropyl-ethyl)-4-methylamino-benzenesulfonamide] gave an IC50 of 16 nM and an inhibition at 0.2 µM of 102%.
CNc1ccc(S(=O)(=O)N(CCC2CC2)c2sc3ccccc3c2Br)cc1Br [Compound 692, 3-Bromo-N-(3-bromo-benzo[b]thiophen-2-yl)-N-(2-cyclopropyl-ethyl)-4-methylamino-benzenesulfonamide] was tested, and the IC50 was 7.2 nM and the inhibition at 0.2 µM was 101%.
CNc1ccc(S(=O)(=O)N(CCC2CC2)c2sc3ccccc3c2Br)cc1 [Compound 693, N-(3-Bromo-benzo[b]thiophen-2-yl)-N-(2-cyclopropyl-ethyl)-4-methylamino-benzenesulfonamide] was tested, and the IC50 was 25.2 nM and the inhibition at 0.2 µM was 103%.
In the case of O=C(Nc1ccc(S(=O)(=O)N(Cc2ccc(F)c(C(F)(F)F)c2)c2sc3ccccc3c2Br)cc1)C(F)(F)F [Compound 695, N-(3-Bromo-benzo[b]thiophen-2-yl)-N-(4-fluoro-3-trifluoromethyl-benzyl)-4-trifluoroacetamido-benzenesulfonamide], the IC50 is reported as 17 nM and the inhibition at 0.2 µM is reported as 101%.
In the case of COC(=O)c1ccc(S(=O)(=O)N(Cc2ccc(F)c(C(F)(F)F)c2)c2sc3ccccc3c2C2CCC2)cc1 [Compound 696, N-(3-Cyclobutyl-benzo[b]thiophen-2-yl)-N-(4-fluoro-3-trifluoromethyl-benzyl)-4-carbomethoxy-benzenesulfonamide], the IC50 is reported as 23 nM and the inhibition at 0.2 µM is reported as 97%.
For O=S(=O)(CC(F)(F)F)N(Cc1ccc(F)c(C(F)(F)F)c1)c1cc2ccccc2s1 [Compound 697, N-(Benzo[b]thiophen-2-yl)-N-(4-fluoro-3-trifluoromethyl-benzyl)-2,2,2-trifluoro-ethanesulfonamide], the IC50 was 64 nM and the inhibition at 0.2 µM was 92%.
O=C(O)c1ccc(S(=O)(=O)N(Cc2ccc(F)c(C(F)(F)F)c2)c2sc3ccccc3c2C2CCC2)cc1 [Compound 698, N-(3-Cyclobutyl-benzo[b]thiophen-2-yl)-N-(4-fluoro-3-trifluoromethyl-benzyl)-4-carboxy-benzenesulfonamide] gave an IC50 of 2 nM and an inhibition at 0.2 µM of 102%.
For Cc1c(N(Cc2ccc(F)c(C(F)(F)F)c2)S(=O)(=O)CCCO)sc2ccccc12 [Compound 699, N-(4-Fluoro-3-trifluoromethyl-benzyl)-N-(3-methyl-benzo[b]thiophen-2-yl)-3-hydroxy-propanesulfonamide], the IC50 was 6 nM and the inhibition at 0.2 µM was 103%.
Cc1c(N(Cc2ccc(OC(F)(F)F)cc2)S(=O)(=O)c2ccc(-n3ccnc3CN(C)C)cc2)sc2ccccc12 [Compound 701, 4-(2-Dimethylaminomethyl-imidazol-1-yl)-N-(3-methyl-benzo[b]thiophen-2-yl)-N-(4-trifluoromethoxy-benzyl)-benzenesulfonamide] gave an IC50 of 32.5 nM and an inhibition at 0.2 µM of 95%.
O=S(=O)(CC(F)(F)F)N(Cc1ccc(F)c(C(F)(F)F)c1)c1sc2ccccc2c1Br [Compound 702, N-(3-Bromo-benzo[b]thiophen-2-yl)-N-(4-fluoro-3-trifluoromethyl-benzyl)-2,2,2-trifluoro-ethanesulfonamide] was tested, and the IC50 was 23 nM and the inhibition at 0.2 µM was 99%.
O=S(=O)(CC(F)(F)F)N(Cc1ccc(F)c(C(F)(F)F)c1)c1sc2ccccc2c1Cl [Compound 703, N-(3-Chloro-benzo[b]thiophen-2-yl)-N-(4-fluoro-3-trifluoromethyl-benzyl)-2,2,2-trifluoro-ethanesulfonamide] was tested, and the IC50 was 51 nM and the inhibition at 0.2 µM was 80%.
In the case of O=S(=O)(CC(F)(F)F)N(Cc1ccc(F)c(C(F)(F)F)c1)c1sc2ccccc2c1CO [Compound 704, N-(3-Hydroxymethyl-benzo[b]thiophen-2-yl)-N-(4-fluoro-3-trifluoromethyl-benzyl)-2,2,2-trifluoro-ethanesulfonamide], the inhibition at 0.2 µM is reported as 102%.
CNS(=O)(=O)N(Cc1ccc(F)c(C(F)(F)F)c1)c1sc2ccccc2c1Br [Compound 705, N-(3-Bromo-benzo[b]thiophen-2-yl)-N-(4-fluoro-3-trifluoromethyl-benzyl)-N′-methyl-sulfamide] was tested, and the IC50 was 19 nM and the inhibition at 0.2 µM was 101%.
O=c1[nH]c(-c2ccc(S(=O)(=O)N(CCC3CC3)c3sc4ccccc4c3Br)cc2)ns1 [Compound 706, N-(3-Bromo-benzo[b]thiophen-2-yl)-N-(cyclopropyl-ethyl)-4-(5-oxo-4,5-dihydro-[1,2,4]thiadiazol-3-yl)-benzenesulfonamide] showed an IC50 of 14 nM and an inhibition at 0.2 µM of 102%.
For O=C(O)c1ccc(S(=O)(=O)N(CCCCC(F)(F)F)c2sc3ccccc3c2Br)c(F)c1 [Compound 707, N-(3-Bromo-benzo[b]thiophen-2-yl)-N-(5,5,5-trifluoro-pentyl)-2-fluoro-4-carboxy-benzenesulfonamide], the IC50 was 3 nM and the inhibition at 0.2 µM was 102%.
With O=c1[nH]c(-c2ccc(S(=O)(=O)N(CCC(F)(F)F)c3sc4ccccc4c3Br)cc2)ns1 [Compound 708, N-(3-Bromo-benzo[b]thiophen-2-yl)-N-(3,3,3-trifluoro-propyl)-4-(5-oxo-4,5-dihydro-[1,2,4]thiadiazol-3-yl)-benzenesulfonamide] the IC50 was 13 nM and the inhibition at 0.2 µM was 102%.
With O=C(O)c1ccc(S(=O)(=O)N(CCC2CC2)c2sc3ccccc3c2Br)c(F)c1 [Compound 709, N-(3-Bromo-benzo[b]thiophen-2-yl)-N-(2-cyclopropyl-ethyl)-2-fluoro-4-carboxy-benzenesulfonamide] the IC50 was 6 nM and the inhibition at 0.2 µM was 102%.
O=C(O)c1ccc(S(=O)(=O)N(CCC(F)(F)F)c2sc3ccccc3c2Br)c(F)c1 [Compound 710, N-(3-Bromo-benzo[b]thiophen-2-yl)-N-(3,3,3-trifluoro-propyl)-2-fluoro-4-carboxy-benzenesulfonamide] showed an IC50 of 7 nM and an inhibition at 0.2 µM of 102%.
Work on O=C(O)c1ccc(S(=O)(=O)N(Cc2ccc(F)c(C(F)(F)F)c2)c2sc3ccccc3c2Br)c(F)c1 [Compound 711, N-(3-Bromo-benzo[b]thiophen-2-yl)-N-(4-fluoro-3-trifluoromethyl-benzyl)-2-fluoro-4-carboxy-benzenesulfonamide] yielded an IC50 of 2 nM and an inhibition at 0.2 µM of 102%.
